Here are results for 2 compounds from PMC9000575, “Solution Equilibrium Studies on Salicylidene Aminoguanidine Schiff Base Metal Complexes: Impact of the Hybridization with L-Proline on Stability, Redox Activity and Cytotoxicity” (Molecules, 2022).

The nature of series [1]: thermodynamic solubility at pH 7.4. It is filed as physicochemical. Particulars: 10 mM HEPES buffer, aqueous buffer, thermodynamic from solid, pH 7.4, T = 25 °C, read-out: thermodynamic solubility at pH 7.4 (S7.4).
Series [2] is described as follows: proton dissociation constants by UV-vis spectrophotometric titration. It is filed as physicochemical. The settings on record: for pK2 (H2L+) / pK3 (HL): Pro-SISC-Me; for pK1 (H2L+) / pK2 (HL): SISC. The method, then: An Agilent Cary 8454 diode array spectrophotometer (Agilent Technologies, Santa Clara, CA, USA) was used to record the UV-vis spectra at an interval of 200–800 nm. The path length was 1 or 2 cm. Spectrophotometric titrations were performed in water or in 30% (v/v) DMSO/H2O on samples containing the ligands at 50 μM–1 mM concentration, in the pH range from 1.0 to 12.5 in the absence or in the presence of 1 or 0.5 or 0.33 equiv. metal ions. Ka values of the ligands and the UV-vis spectra of the individual species were calculated by the computer program PSEQUAD [45].

The test system of series [3] is MRC-5 human embryonal lung fibroblast cells. Put plainly: MTT cytotoxicity test. It is filed as cell-based. Particulars: Homo sapiens, MRC5, MRC-5, 72 h. As for the experimental part:
(§1) All cell culture reagents were obtained from Sigma-Aldrich and plastic ware from Sarstedt (Nümbrecht, Germany). Human colon Colo-205 (chemo-sensitive) and Colo-320 (doxorubicin-resistant) adenocarcinoma and MRC-5 human embryonal lung fibroblast cell lines were purchased from LGC Promochem, Teddington, UK. The colon adenocarcinoma cells were cultured in Roswell Park Memorial Institute (RPMI) 1640 medium supplemented with 10% heat-inactivated fetal bovine serum, 2 mM L-glutamine, 1 mM sodium pyruvate and 100 mM HEPES. The MRC-5 cell line was cultured in Eagle’s Minimal Essential Medium (EMEM, Sigma-Aldrich, St. Louis, MO, USA) supplemented with a non-essential amino acid (NEAA) mixture (Sigma-Aldrich, St. Louis, MO, USA) a selection of vitamins, 10% heat-inactivated foetal bovine serum (FBS), 2 mM L-glutamine (Sigma-Aldrich, St. Louis, MO, USA), 1 mM Na-pyruvate (Sigma-Aldrich, St. Louis, MO, USA), nystatin (Sigma-Aldrich, St. Louis, MO, USA) and a penicillin-streptomycin mixture (Sigma-Aldrich, St. Louis, MO, USA) in concentrations of 100 U/L and 10 mg/L, respectively. The cells were incubated at 37 °C, in a 5% CO2, 95% air atmosphere. All cell lines were detached with Trypsin-Versene® (EDTA) solution for 5 min at 37 °C.
(§2) The tested compounds were dissolved in 90% (v/v) DMSO/H2O using 8 mM concentration, […] in the final samples the DMSO content was always lower than 1%. Then stock solutions were diluted in complete culture medium, and two-fold serial dilutions of compounds were prepared in 100 μL of the medium, horizontally. The semi-adherent colon adenocarcinoma cells were treated with Trypsin-Versene (EDTA) solution. They were adjusted to a density of 1 × 10^4 cells in 100 μL of RPMI 1640 or EMEM medium and were added to each well, with the exception of the medium control wells. The final volume of the wells containing compounds and cells was 200 μL. The plates containing Colo-205, Colo-320 or MRC-5 cells were incubated at 37 °C for 72 h; at the end of the incubation period, 20 μL of MTT solution (from a stock solution of 5 mg/mL) were added to each well. After incubation at 37 °C for 4 h, 100 μL of SDS solution (10% in 0.01 M HCI) were added to each well, and the plates were further incubated at 37 °C overnight. Cell growth was determined by measuring the optical density (OD) at 540/630 nm with a Multiskan EX plate reader (Thermo Labsystems, Cheshire, WA, USA). Inhibition of the cell growth (expressed as IC50: inhibitory concentration that reduces by 50% the growth of the cells exposed to the tested compounds) was determined from the sigmoid curve where 100 − ((ODsample − ODmedium control)/(ODcell control − ODmedium control)) × 100 values were plotted against the logarithm of compound concentrations. Curves were fitted by GraphPad Prism software (2021, Graphpad Software, San Diego, CA, USA) using the sigmoidal dose–response model (comparing variable and fixed slopes). The IC50 values were obtained from at least three independent experiments.

Series [4] deals with Colo-320 (doxorubicin-resistant) human colon adenocarcinoma cells. Put plainly: MTT cytotoxicity test. It is filed as cell-based. Particulars: Homo sapiens, Colo-320, 72 h. The method, then:
as §1, §2
(In general: Formazan colour is commonly taken as a measure of viable cells.)

The test system of series [5] is Colo-205 human colon adenocarcinoma cells. Put plainly: MTT cytotoxicity test. Format: cell-based. The settings on record: Homo sapiens, Colo-205, 72 h. The method, then:
as §1, §2

Each structure is given as a SMILES string. Converted amounts (≈) assume the structure as drawn.

With `Cc1cc(C=NNC(=N)N)c(O)c(CN2CCCC2C(=O)O)c1` (stereo not shown) [Pro-SISC-Me], the solubility (thermodynamic) in series [1] is approximately 10 mM (≈ 3190 µg/mL). Moreover, the “pK2 (H2L+)” value in series [2] (30% DMSO/H2O) is given as 7.07 ± 0.03; in series [2] (H2O), 7.30 ± 0.03. For the same compound, the “pK3 (HL)” value came out at 9.84 ± 0.03 in series [2] (30% DMSO/H2O) and 9.67 ± 0.03 in series [2] (H2O). The IC50 in series [3], in series [4] and in series [5] was more than 80 µM throughout.
`N=C(N)NN=Cc1ccccc1O` [SISC, 2-(2-hydroxybenzylidene)hydrazinecarboximidamide]: the thermodynamic solubility in series [1] was approximately 2 mM (≈ 356 µg/mL). The “pK1 (H2L+)” value is on record as 7.56 ± 0.03 in series [2] (30% DMSO/H2O) and 7.64 ± 0.03 in series [2] (H2O). For the same compound, the “pK2 (HL)” value was determined as 10.67 ± 0.03 in series [2] (30% DMSO/H2O) and 10.12 ± 0.03 in series [2] (H2O). Also, the 50% inhibitory concentration (IC50) in series [3], in series [4] and in series [5] was more than 80 µM throughout.

One may read the solubility (thermodynamic) as solubility found after equilibrating the solid with the medium. A word on the IC50: it is the concentration that gives 50% inhibition.
